According to patent publication US10022356B2, “Compounds for treatment of cancer” (UNIVERSITY OF TENNESSEE RESEARCH FOUNDATION, priority 2013, dated 2018):
≈ marks a conversion by molar mass, not a printed value. Where “and” joins values, the source holds several entries; their conditions need not be identical. Equal values may be shown once. Read-outs that look alike come from different tables or passages of the source. Blank lines part the entries; values can stand above or below the compound they belong to.

What was measured:
[1] = Aqueous solubility (Multiscreen Solubility Filter Plate, LC-MS/MS); assay type: physicochemical; conditions: PBS pH 7.4
[2] = Pharmacokinetic study in Sprague-Dawley rats; conditions: rat
[3] = system: metastasis of melanoma to the lungs; assay: Melanoma lung metastasis model in mice; assay type: in vivo; conditions: i.p. injection 5 days per week for 2 weeks (FIG. 28)
B16-F1 melanoma cells = assay: B16-F1 melanoma colony formation assay in soft agar; assay type: cell-based, mouse; conditions: 14 days; tested 20, 100, 500 nM
Procedure: B16-F1 melanoma cells were plated at a colony-forming density (2000 cells per well on six-well plates) on top of 0.8% base agar. Cells were grown in 0.4% agar together with DMEM medium supplemented with fetal bovine serum and an antibiotic-antimycotic solution at 37° C. in an atmosphere of 95% air and 5% CO2. […] Compounds were added to the media from 1 mM DMSO stock solutions, and a corresponding dilution of DMSO was used as control. Cells were grown for 14 days. Plates were photographed, and the number of colonies was measured by Artek 880 Automated Colony Counter (Artek Systems Corporation, Farmingdale, N.Y.).

A375 = assay: MTS cell proliferation assay on parental A375 cells; assay type: cell-based; conditions: Homo sapiens, A-375, read-out: IC50 value for proliferation inhibition
A375RF21 xenograft = assay: A375RF21 tumor xenograft in nude mice; assay type: in vivo
Procedure: Seven to eight week old male nude mice were purchased from Charles River Laboratories International, Inc. (Wilmington, Mass.). A375RF21 cells were suspended in ice-cold phenol red-free and FBS-free DMEM medium without FBS and mixed with high concentration Matrigel (BD Biosciences, San Joes, Calif.) at ratio of 1:1 right before use. 100 μL of this mixture containing 3×10^6 cells were injected subcutaneously (s.c.) to the left-side dorsal flank of each mouse. One week after the inoculation, the mice were randomized into four groups (n=7 for the initial low dose and n=5 for subsequent high dose drug combination) and the treatments started. […] Vehicle control group was i.p. injected with same volume (100 μL) of PEG300 at the same dosing frequency. At the end of the experiments, mice were euthanized and tumor tissue were isolated, weighted and then fixed in 10% buffered formalin phosphate solution.
Tumor volume and body weight of each mouse were evaluated three times a week.

A375RF21 [4] = assay: MTS cell proliferation assay on vemurafenib-resistant A375RF21 cells; assay type: cell-based; conditions: Homo sapiens, read-out: IC50 value for proliferation inhibition
A375RF21 [5] = assay: Annexin V/propidium iodide apoptosis detection in A375RF21 cells; assay type: cell-based, human; conditions: 48 hours incubation
in vitro = conditions: human, liver microsomes, pH 7.4
[6] = system: three melanoma cell lines and four human prostate cancer cell lines; assay: Antiproliferative activity quoted in the SAR text (average of all seven cell lines); assay type: cell-based
PC-3 = assay: SRB cytotoxicity assay, PC-3; conditions: read-out: PC3 (nM), inhibitory effects; RABI, Tables 10A/10B
Du 145 = assay: SRB cytotoxicity assay, Du 145; assay type: cell-based, human; conditions: RABI, Tables 10A/10B; read-out: DU145 (nM), inhibitory effects
PPC-1 = assay: SRB cytotoxicity assay, PPC-1; assay type: cell-based, human; conditions: RABI, Tables 10A/10B; read-out: PPC1 (nM), inhibitory effects
LNCaP = assay: SRB cytotoxicity assay, LNCaP; assay type: cell-based, human; conditions: Reversed aryl benzoyl imidazole (RABI), Tables 10A/10B; read-out: LNCaP (nM), inhibitory effects
[7] = system: A375 human melanoma xenograft; assay: A375 human melanoma xenograft in SHO nude mice; assay type: in vivo; conditions: 60 mg/kg; after 31 days of treatment
Procedure: FIG. 19 depicts in vivo study of ABI compounds. […] C57BL/6 mice bearing B16-F1 melanoma allograft (n=5 per group). Each mouse received 0.5×10^6 cells by s.c. injection into the flank. 30 μL i.p. daily treatments were started when tumor size reached ˜100 mm^3. […] SHO nude mice bearing an A375 human melanoma xenograft (n=5 per group). Each mouse received 2.5×10^6 cells by s.c. injection into the flank. 30 μL i.p. daily treatments were started when the tumor size reached ˜150 mm^3. Control, vehicle solution only; points, means; bars, SD. DTIC, (5-(3,3,-dimethyl-1-triazenyl)-imidazole-4-carboxamide, dacarbazine.
Average body weight of all groups increased slightly throughout the experiment period.

B16-F1 melanoma = B16-F1 melanoma tumors in C57/BL mice; assay type: in vivo; conditions: 60 mg/kg; after 13 days of treatment; C57BL/6 mice
A375RF21 [8] = assay: In vitro combination assay (combination index) on A375RF21; assay type: cell-based, human; conditions: Treatment + Vemurafenib
[9] = Brain penetration (brain and plasma concentrations) in nude mice; conditions: docetaxel IP 10 mpk, 17ya PO 20 mpk, 55 PO 20 mpk
PC-3/TxR tumors = conditions: for Tumor size (mm^2) End / Tumor size (mm^2) Start: PC-3/TxR xenograft; for Tumor size (mm^2) End: day 1 and 9, end point day 19; for Tumor size (mm^2) Start: day 1 and 9, start
[10] = vemurafenib 30 mg/kg, 12da 15 mg/kg, n=5

Structure (SMILES): COc1cc(C(=O)c2csc(-c3ccccc3)n2)cc(OC)c1OC [1 h, reference compound]
Aqueous solubility [1]: (1.1) μg/mL
oral bioavailability [2]: 3.3%

Structure (SMILES): COc1ccc(-c2nc(C(=O)c3ccc(F)cc3)c[nH]2)cc1 [12cb, (4-fluorophenyl)(2-(4-methoxyphenyl)-1H-imidazol-4-yl)methanone]
metastasis of melanoma to the lungs [3]: inhibition
concentration showing effective inhibition of B16-F1 colony formation (B16-F1 melanoma cells): 20 nM

Structure (SMILES): COc1cc(C(=O)c2c[nH]c(-c3ccc(C)cc3)n2)cc(OC)c1OC [12da, (2-(p-tolyl)-1H-imidazol-4-yl)(3,4,5-trimethoxyphenyl)methanone]
IC50 (A375): 0.0107 ± 0.0015 µM
metastasis of melanoma to the lungs [3]: inhibition
TGI (%) (A375RF21 xenograft; 12da 10 mg/kg, vemurafenib 20 mg/kg, i.p. once per day 5 days per week, after 3 weeks of treatment, n=7): 38.12% and 38.12 ± 6.14%
Tumor weight (gram) (A375RF21 xenograft; 12da 10 mg/kg, vemurafenib 20 mg/kg, after 3 weeks of treatment, n=7): 1.77 ± 0.11 gram
TGI (%) (A375RF21 xenograft; [10]): 72.72% and 72.72 ± 8.29%
Tumor weight (gram) (A375RF21 xenograft; [10]): 0.51 ± 0.12 gram
IC50 (A375RF21 [4]): 0.0136 ± 0.0044 µM
counted cell apoptosis or death (percentage sum of Q1, Q2 and Q4) (A375RF21 [5]): 11.8±3.0%

half-life at 0.5 μM (in vitro): 44 min
solubility at […] ([1]; phosphate buffered saline, aqueous buffer, kinetic from dmso stock): 12 µg/mL (≈ 32.2 µM)
Structure (SMILES): COc1cc(C(=O)c2c[nH]c(-c3ccc(Cl)cc3)n2)cc(OC)c1OC [12fa, (2-(4-chlorophenyl)-1H-imidazol-4-yl)(3,4,5-trimethoxyphenyl)methanone]

Structure (SMILES): O=C(c1ccc(F)cc1)c1c[nH]c(-c2ccc(OCc3ccccc3)cc2)n1 [12jb, (2-(4-(benzyloxy)phenyl)-1H-imidazol-4-yl)(4-fluorophenyl)methanone]
increase in activity compared with the para-hydroxy compound 12kb [6]: 440 fold

Structure (SMILES): O=C(c1ccc(Br)cc1)c1nc(-c2ccc(Br)cc2)c[nH]1 [70t]
IC50 (PC-3): 18900 nM
IC50 (Du 145): 25500 nM
IC50 (PPC-1): 13200 nM
IC50 (LNCaP): 16900 nM

Structure (SMILES): COc1ccc(C(=O)c2nc(-c3cc(OC)c(OC)c(OC)c3)c[nH]2)cc1 [70y]
IC50 (PC-3): 10400 nM
IC50 (PPC-1): 5680 nM
IC50 (LNCaP): 708 nM

Structure (SMILES): CN(C)/N=N/c1[nH]cnc1C(N)=O [DTIC, reference compound]
melanoma tumor growth inhibition (TGI value) [7]: 52%
melanoma tumor growth inhibition (TGI value) (B16-F1 melanoma): 51%

Structure (SMILES): CC(=O)O[C@@]12CO[C@@H]1C[C@H](O)[C@@]1(C)C(=O)[C@H](O)C3=C(C)[C@@H](OC(=O)[C@H](O)[C@@H](NC(=O)OC(C)(C)C)c4ccccc4)C[C@@](O)([C@@H](OC(=O)c4ccccc4)[C@H]21)C3(C)C [Docetaxel]
CI ED75 (A375RF21 [8]): 0.80
CI ED90 (A375RF21 [8]): 0.90
Brain (ng/mL), 4 hr [9]: 20 ± 9 ng/mL
Plasma (ng/mL), 1 hr [9]: 768 ± 92 ng/mL
Plasma (ng/mL), 4 hr [9]: 345 ± 94 ng/mL
Brain (ng/mL), 1 hr ([9]; mean ± SD, 3 nude mice): 33 ± 14 ng/mL
Tumor size (mm^2) End (PC-3/TxR tumors; IV 10mpk): 1774 ± 183 mm^2
Tumor size (mm^2) Start (PC-3/TxR tumors; IV 10mpk): 143 ± 20 mm^2
Tumor size (mm^2) End (PC-3/TxR tumors; IV 20mpk): 999 ± 905 mm^2
Tumor size (mm^2) Start (PC-3/TxR tumors; IV 20mpk): 170 ± 80 mm^2
TGI (%) (PC-3/TxR tumors; mouse, in vivo, iv, 10 mg/kg): 14%
counted cell apoptosis or death (percentage sum of Q1, Q2 and Q4) (A375RF21 [5]): 6.4±3.0%
